Values quoted from earlier work as cited in US7273870B2, “Stabilized difloxacin injectable solution” (Wyeth, priority 2002, dated 2007).

Solubility in water: not highly soluble in water
SMILES: CN1CCN(c2cc3c(cc2F)c(=O)c(C(=O)O)cn3-c2ccc(F)cc2)CC1 [Difloxacin, 6-fluoro-1-(4-fluorophenyl)-1,4-dihydro-7-(4-methyl-1-piperadinyl) 4-oxo-3-quinolinecarboxylic acid]
